According to article doi:10.1101/2020.05.04.072892v1 (bioRxiv, 2020):

Tested on: GBM6 cells
Experiment: Nanoparticle internalization by flow cytometry, GBM6 cells
Type: cell-based, Human
Settings: for cell internalization of free dye: average bulk FL of FAM with flow cytometry, over time

Compound | cell internalization of free dye | cell internalization of free dye (listed as free FAM) | time of maximum DOX fluorescence in cells (average bulk FL of DOX by FCT)
5,6-carboxyfluorescein [FAM] | cannot enter cells | no cell | 
COc1cccc2c1C(=O)c1c(O)c3c(c(O)c1C2=O)C[C@@](O)(C(=O)CO)C[C@@H]3O[C@H]1C[C@H](N)[C@H](O)[C@H](C)O1 [free DOX, doxorubicin] |  |  | 24 h
